Source: ChEMBL document CHEMBL1177684, “Synthesis, molecular modeling, and biological evaluation of cinnamic acid metronidazole ester derivatives as novel anticancer agents” (Bioorg Med Chem, 2010)

Legend:
[1] = target: Epidermal growth factor receptor (Homo sapiens, UniProt P00533)
Description: Inhibition of human recombinant His6x-tagged EGFR autophosphorylation expressed in Sf9 cells after 1 hr by ELISA

MCF7 = test: Antiproliferative activity against human MCF7 cells after 48 hrs by MTT assay; conditions: MCF7, 48 h
[2] = target: Receptor tyrosine-protein kinase erbB-2 (Homo sapiens, UniProt P04626)
Sequence of Receptor tyrosine-protein kinase erbB-2 (P04626 whole entry): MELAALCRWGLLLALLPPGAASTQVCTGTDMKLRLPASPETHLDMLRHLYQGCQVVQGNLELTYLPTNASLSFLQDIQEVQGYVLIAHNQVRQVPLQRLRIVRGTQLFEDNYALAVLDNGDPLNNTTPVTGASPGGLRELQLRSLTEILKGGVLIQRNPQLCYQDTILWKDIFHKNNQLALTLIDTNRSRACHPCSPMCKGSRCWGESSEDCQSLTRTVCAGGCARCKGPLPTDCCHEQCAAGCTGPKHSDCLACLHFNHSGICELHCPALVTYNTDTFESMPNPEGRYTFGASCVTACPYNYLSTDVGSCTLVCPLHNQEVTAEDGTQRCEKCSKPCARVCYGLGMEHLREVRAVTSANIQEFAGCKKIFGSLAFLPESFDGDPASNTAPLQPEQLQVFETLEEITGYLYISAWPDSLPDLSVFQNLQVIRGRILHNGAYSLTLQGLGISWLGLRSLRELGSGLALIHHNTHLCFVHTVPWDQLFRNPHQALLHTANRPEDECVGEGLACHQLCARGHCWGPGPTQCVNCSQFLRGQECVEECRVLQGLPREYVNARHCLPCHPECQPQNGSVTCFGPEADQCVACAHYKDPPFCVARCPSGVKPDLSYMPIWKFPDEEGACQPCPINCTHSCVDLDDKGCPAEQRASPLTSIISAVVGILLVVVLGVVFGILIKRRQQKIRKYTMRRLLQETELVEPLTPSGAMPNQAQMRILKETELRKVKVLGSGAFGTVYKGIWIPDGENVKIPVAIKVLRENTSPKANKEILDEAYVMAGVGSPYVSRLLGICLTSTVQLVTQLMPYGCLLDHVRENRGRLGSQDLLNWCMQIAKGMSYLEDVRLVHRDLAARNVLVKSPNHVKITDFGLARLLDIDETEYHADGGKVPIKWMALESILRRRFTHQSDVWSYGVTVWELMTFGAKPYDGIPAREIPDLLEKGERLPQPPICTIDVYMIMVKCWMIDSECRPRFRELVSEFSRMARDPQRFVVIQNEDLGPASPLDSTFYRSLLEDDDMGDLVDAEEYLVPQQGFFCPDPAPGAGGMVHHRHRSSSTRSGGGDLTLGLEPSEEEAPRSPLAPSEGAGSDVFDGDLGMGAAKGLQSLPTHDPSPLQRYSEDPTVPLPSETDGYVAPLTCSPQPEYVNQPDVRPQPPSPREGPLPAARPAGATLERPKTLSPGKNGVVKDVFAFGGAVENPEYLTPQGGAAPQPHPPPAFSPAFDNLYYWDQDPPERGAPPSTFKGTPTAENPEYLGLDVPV
Description: Inhibition of human recombinant His6x-tagged HER2 autophosphorylation expressed in Sf9 cells after 1 hr by ELISA

Sequence of Epidermal growth factor receptor (P00533 whole entry): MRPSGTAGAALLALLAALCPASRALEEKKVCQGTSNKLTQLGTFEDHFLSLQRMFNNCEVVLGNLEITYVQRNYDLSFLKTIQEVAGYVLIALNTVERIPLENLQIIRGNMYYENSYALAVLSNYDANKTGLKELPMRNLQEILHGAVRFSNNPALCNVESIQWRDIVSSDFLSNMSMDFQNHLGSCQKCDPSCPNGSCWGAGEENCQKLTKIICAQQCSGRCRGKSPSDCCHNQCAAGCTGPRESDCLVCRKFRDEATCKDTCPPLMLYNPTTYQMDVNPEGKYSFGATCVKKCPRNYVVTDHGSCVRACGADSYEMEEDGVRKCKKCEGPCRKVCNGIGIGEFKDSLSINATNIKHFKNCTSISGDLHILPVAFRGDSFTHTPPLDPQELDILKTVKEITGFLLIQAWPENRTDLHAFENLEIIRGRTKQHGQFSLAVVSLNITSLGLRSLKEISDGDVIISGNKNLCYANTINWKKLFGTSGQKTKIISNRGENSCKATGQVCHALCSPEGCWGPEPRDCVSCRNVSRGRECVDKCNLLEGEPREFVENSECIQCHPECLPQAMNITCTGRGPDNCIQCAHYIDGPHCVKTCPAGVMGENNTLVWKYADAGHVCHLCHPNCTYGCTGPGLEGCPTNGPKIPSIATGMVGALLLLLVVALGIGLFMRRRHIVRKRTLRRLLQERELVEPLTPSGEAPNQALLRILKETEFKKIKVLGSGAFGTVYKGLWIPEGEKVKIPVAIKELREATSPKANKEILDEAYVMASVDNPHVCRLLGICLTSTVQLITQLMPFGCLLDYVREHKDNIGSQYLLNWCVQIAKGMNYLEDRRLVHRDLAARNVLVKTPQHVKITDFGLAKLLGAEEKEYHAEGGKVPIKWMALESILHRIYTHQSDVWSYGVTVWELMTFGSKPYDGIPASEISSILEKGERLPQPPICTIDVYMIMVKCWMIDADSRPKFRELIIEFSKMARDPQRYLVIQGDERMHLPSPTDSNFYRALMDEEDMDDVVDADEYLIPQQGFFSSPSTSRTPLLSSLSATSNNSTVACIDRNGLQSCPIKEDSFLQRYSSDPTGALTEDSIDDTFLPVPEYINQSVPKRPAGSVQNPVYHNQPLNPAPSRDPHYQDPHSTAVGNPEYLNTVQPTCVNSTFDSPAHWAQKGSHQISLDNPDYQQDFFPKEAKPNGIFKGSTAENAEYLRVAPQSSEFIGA

| SMILES | IC50 [1] [µM] | IC50 (MCF7) [µM] | IC50 [2] [µM] |
| --- | --- | --- | --- |
| Cc1ncc([N+](=O)[O-])n1CCOC(=O)/C=C/c1cccc2ccccc12 | 3.88 | 3.4 | 5.03 |
| Cc1ncc([N+](=O)[O-])n1CCOC(=O)/C=C/c1ccc2ccccc2c1 | 5.76 | 4.1 | 9.24 |
| COc1ccccc1/C=C/C(=O)OCCn1c([N+](=O)[O-])cnc1C | 32 | 20 | > 50 |
| Cc1ncc([N+](=O)[O-])n1CCOC(=O)/C=C/c1ccc(F)cc1 | 4.12 | 3.76 | 5.84 |
| Cc1ncc([N+](=O)[O-])n1CCOC(=O)/C=C/c1ccc(Cl)cc1 | 3.62 | 3.05 | 4.77 |
| Cc1ncc([N+](=O)[O-])n1CCOC(=O)/C=C/c1ccccc1F | 26.7 | 15 | 41.3 |
| Cc1ncc([N+](=O)[O-])n1CCOC(=O)/C=C/c1ccccc1Cl | 20.8 | 18 | 36.5 |
| Cc1ncc([N+](=O)[O-])n1CCOC(=O)/C=C/c1ccccc1Br | 24.3 | 16 | 44.8 |
| Cc1ncc([N+](=O)[O-])n1CCOC(=O)/C=C/c1cccc([N+](=O)[O-])c1 | 14.5 | 5.68 | 19.3 |
| Cc1ncc([N+](=O)[O-])n1CCOC(=O)/C=C/c1cccc(F)c1 | 12.4 | 5.88 | 16.8 |
| COc1cccc(/C=C/C(=O)OCCn2c([N+](=O)[O-])cnc2C)c1 | 13.9 | 5.75 | 18.8 |
| Cc1ncc([N+](=O)[O-])n1CCOC(=O)/C=C/c1ccc(Br)cc1 | 3.24 | 2.45 | 4.65 |
| Cc1ncc([N+](=O)[O-])n1CCOC(=O)/C=C/c1ccccc1 | 7.83 | 4.41 | 10.8 |
| Cc1ccc(/C=C/C(=O)OCCn2c([N+](=O)[O-])cnc2C)cc1 | 8.11 | 4.28 | 9.65 |
| COc1ccc(/C=C/C(=O)OCCn2c([N+](=O)[O-])cnc2C)cc1 | 10.8 | 5.49 | 14.3 |
| Cc1ncc([N+](=O)[O-])n1CCOC(=O)/C=C/c1ccc(C(C)C)cc1 | 6.82 | 4.96 | 9.97 |
| Cc1ncc([N+](=O)[O-])n1CCOC(=O)/C=C/c1ccc(-c2ccccc2)cc1 | 0.62 | 0.36 | 2.15 |
| Cc1ncc([N+](=O)[O-])n1CCOC(=O)/C=C/c1ccc(OCc2ccccc2)cc1 | – | – | 3.46 |
| Cc1ncc([N+](=O)[O-])n1CCOC(=O)/C=C/c1ccccc1[N+](=O)[O-] | 25 | 17 | 40 |
